Holding throughout (assay): growth of human tumour cells (NCI), 48 h
In test [1] the test system is A498 renal.
For test [2], the system named is A549 NSCLC.
The test system of test [3] is COLO 205 colon.
Test [4] relates to EKVX NSCLC.
Test [5] concerns NCI-H226 lung.
The test system of test [6] is NCI-H522 lung.
Test [7] deals with RPMI-8226 leukemia.
Test [8] concerns SF-539 CNS.
Test [9] relates to SK-OV-3 ovarian.
Test [10] deals with SN12C renal.

“And” between values parts separate entries of the source, which are not always exact repeats. Identical values can stand only once.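 Protocol summary: plate cells (96-well), add compound at 5 concentrations, incubate 48 h, interpolate endpoints linearly. GI50: concentration for 50% inhibition of growth. At the TGI there is no net growth.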

With `O=[N+]([O-])c1ccc(Nc2ccccc2-c2ccccc2)c2nonc12`, the GI50 is 14.8 µM in [1]; 16.7 µM in [2]; 18.6 µM in [3]; 15.5 µM in test [4]; 14 µM in test [5]; 11.6 µM in [6]. Also, the GI50 in test [7] was 6.91 µM; in test [8], 17 µM; in test [9] it was 22 µM; in test [10] it was 12.4 µM. In addition, the TGI is 41.6 µM in [1]; more than 86.8 µM in test [2]; 45.2 µM in test [3]; 64.1 µM in [4]; 40.5 µM in test [5]; 37.5 µM in test [6]. The TGI in test [7] is more than 100 µM; in test [8], 39.9 µM; in test [9], more than 75.7 µM; in [10] it was 28.2 µM.
Regarding `COc1ccc(/C(=N/NC(N)=O)C2(O)C(=O)Nc3ccc([N+](=O)[O-])cc32)cc1` (configuration not stated), the TGI in [1] was 87.5 µM; in [2], more than 100 µM; in test [3], 53.4 µM; in [4] it was more than 100 µM; in test [5], more than 100 µM; in test [6], 41.9 µM. Also, the TGI in test [7] was 74.1 µM; in [8], 31.3 µM; in test [9], more than 100 µM; in [10] it was more than 10 µM.
`COc1cccc2c1C(=O)c1c(O)c3c(c(O)c1C2=O)CC(O)(C(C)=O)CC3OC1CC(N)C(O)C(C)O1` (configuration not stated): the GI50 in [1] is 0.0558 µg/mL; in test [3], 0.114 µg/mL; in [4], 0.191 µg/mL; in test [6] it was 0.0317 µg/mL; in test [7], 0.0159 µg/mL; in test [9] it was 0.0312 µg/mL. Besides, the GI50 in test [10] was 0.0177 µg/mL. Also, the TGI in [1] worked out at 0.39 µg/mL; in test [2], 1.85 µg/mL; in test [3] it was 0.334 µg/mL; in test [4], 2.66 µg/mL; in test [5] it was 0.155 µg/mL; in [6] it was 0.287 µg/mL. The TGI in [7] was found to be 0.165 µg/mL; in test [8], 0.113 µg/mL; in [9], 2.68 µg/mL; in [10], 3.98 µg/mL.
`COc1cc2c(/C=N\N=C(N)N)c(Cl)[nH]c2cc1C`: the GI50 in test [1] is 19.9 µM; in test [2], 18.6 µM; in [3], 2.67 µM; in [4] it was 16.9 µM; in [5], 10.5 µM; in test [6], 21.4 µM. Moreover, the GI50 in test [7] is 10.5 µM; in test [8], 10.2 µM; in [9] it was 9.03 µM; in [10], 1.65 µM. Besides, the TGI was 35 µM in test [1]; 37.3 µM in test [2]; 8.82 µM in test [3]; 34.5 µM in test [4]; 26.3 µM in [5]; more than 100 µM in [6]. Moreover, the TGI in test [7] amounted to 25 µM; in test [8], 25 µM; in test [9] it was 24.1 µM; in test [10] it was 11.5 µM.
Consider `C=C(Cn1c(=O)c2ccccc2c2ccccc21)c1ccc(C(=O)Nc2ccccc2N)cc1`, for which the GI50 in test [1] was 30.6 µM; in test [2], more than 48.3 µM; in test [3] it was 45.1 µM; in [4], more than 59.8 µM; in [5], 16.7 µM; in test [6], 4.55 µM. The GI50 is 0.765 µM in [7], 21.9 µM in test [8], 24.3 µM in [9] and 11.3 µM in test [10]. The TGI was more than 100 µM in test [1]; more than 100 µM in test [2]; more than 100 µM in test [3]; more than 100 µM in test [4]; more than 100 µM in [5]; more than 94.4 µM in [6]. Moreover, the TGI in test [7] is 4.36 µM; in test [8], more than 100 µM; in test [9] it was more than 100 µM; in [10], more than 100 µM.
In the case of `CC[P+](C)(Cc1ccccc1)c1ccccc1` (configuration not stated), the TGI in [1], in [2], in test [3], in test [4], in test [5] and in [6] was more than 100 µM throughout. Also, the TGI in test [7], in [8], in [9] and in [10] was more than 100 µM in each case.
For `Cc1ccc(C)c(NC(=O)C(=O)CC(=O)C2CCOC2=O)c1` (configuration not stated), the TGI in test [1], in test [2], in test [3], in [4], in [5] and in test [6] was more than 100 µM each time. The TGI in test [7], in test [8], in [9] and in [10] was more than 100 µM throughout.
Regarding `CNC(=O)c1cc(COc2nnc(Nc3ccc(Cl)cc3)c3ccoc23)ccn1`, the GI50 is 6.65 µM and > 10 µM in test [1]; 4.66 µM and > 10 µM in [2]; 20.6 µM and > 10 µM in test [3]; 10.6 µM and > 10 µM in [4]; 3.01 µM and 8.73 µM in [5]; 2.85 µM and 8.83 µM in test [6]. For the same compound, the GI50 in test [7] is 19.4 µM and > 10 µM; in test [8], 1.53 µM and 1.89 µM; in test [9] it was 3.48 µM and 9.73 µM; in test [10] it was 8.86 µM and > 10 µM. The TGI in [1] was 21.9 µM and > 10 µM; in test [2], 20.1 µM and > 10 µM; in [3] it was more than 79 µM; in test [4], 28.3 µM and > 10 µM; in [5], 13.1 µM and > 10 µM; in [6] it was 11.9 µM and > 10 µM. The TGI in test [7] was more than 82.7 µM; in test [8], 5.86 µM and > 10 µM; in test [9], 13.2 µM and > 10 µM; in test [10], 27.2 µM and > 10 µM.
Regarding `Cc1cccc(C(=O)c2cccc3ccccc23)c1C(=O)O`, the TGI in test [1] was more than 100 µM; in test [2], more than 100 µM; in test [3], 80 µM; in [4], more than 100 µM; in [5], more than 100 µM; in [6] it was more than 100 µM. For the same compound, the TGI in [7], in test [8], in test [9] and in test [10] was more than 100 µM in each case.
On to `Nc1ncnc2c1ncn2C1OC(COP(=O)(O)CP(=O)(O)O)C(O)C1O` (configuration not stated), for which the TGI in test [1], in test [2], in test [3], in [4], in test [5] and in test [6] was more than 100 µM throughout. In addition, the TGI in test [7], in test [8], in test [9] and in test [10] was more than 100 µM throughout.

Values taken from PubChem BioAssay (NCI).
